{"source": "paper PMC8116058", "about": "“De novo macrocyclic peptides dissect energy coupling of a heterodimeric ABC transporter by multimode allosteric inhibition” (eLife, 2021)", "target": "outward-facing TmrA^EQB trapped with Mg-ATP (Thermus thermophilus, UniProt Q72J04+Q72J05, E523Q)", "assay": "Conformation-specific binding by fluorescence anisotropy, OF conformer", "conditions": "fluorescence polarization, IF TmrAB vs ATP-trapped OF TmrA^EQB", "excerpt": "ABC transport complexes such as TmrAB run through multiple conformational states along the ATP hydrolysis cycle to drive unidirectional substrate transport ([Hofmann et al., 2019]; [Stefan et al., 2020]). Within the substrate translocation cycle, two major conformers, inward-facing (IF) and outward-facing (OF), were identified. To investigate whether CPs favor one of these conformers, we probed the binding of CP^Fs by fluorescence polarization analysis. […] In the latter case, the interaction studies were performed immediately after the IF-to-OF switch by incubation with ATP for 5 min at 45°C. To exclude an OF-to-IF return (τ1/2 of 25 min) ([Stefan et al., 2020]), the fluorescence anisotropy was recorded only within the first minute of incubation.\nFigure 5. […] Immediately after, the fluorescence anisotropy was assayed at λex/em = 485/520 nm. The difference in fluorescence polarization was normalized to free and fully bound CP^F. Data were fitted by a one-site binding model. […] Occluded nucleotides were analyzed by thin layer chromatography and autoradiography. […] (D) Stably occluded nucleotides, [α^32P]-ATP and [α^32P]-ADP, were quantified by autoradiography. […] The difference in fluorescence polarization was normalized to unbound (0%) and 100% bound CP^F. Data were fitted by a one-site binding model. Fluorescence anisotropy was recorded at λex/em = 485/520 nm. […]", "note": "Positions of bridges follow the written chain, without caps; N, C: chain ends. Non-standard residues stand in square brackets, D forms with d. Residues, ends and D or L forms follow the SMILES beside them. *: point of attachment. 5FAM = O=C1OC2(c3ccc(O)cc3Oc3cc(O)ccc32)c2ccc(C(=O)*)cc21; βAla = NCCC(=O)O", "data": [{"molecule": "CC(C)[C@@H]1NC(=O)[C@H](Cc2ccccc2)NC(=O)[C@@H]2CCCN2C(=O)[C@H](CC(N)=O)NC(=O)[C@H](Cc2c[nH]c3ccccc23)NC(=O)[C@H](C(C)C)NC(=O)[C@H](Cc2ccc(O)cc2)NC(=O)[C@H](Cc2ccccc2)NC(=O)[C@@H](Cc2ccc(O)cc2)NC(=O)CSC[C@@H](C(=O)NCC(=O)N[C@@H](CO)C(=O)NCCC(=O)NCCC(=O)N[C@@H](CCCNC(=N)N)C(=O)N[C@@H](CCCCNC(=O)c2ccc3c(c2)C(=O)OC32c3ccc(O)cc3Oc3cc(O)ccc32)C(N)=O)NC(=O)[C@H](CCCCN)NC(=O)[C@H](Cc2ccccc2)NC1=O", "note": "[CP14] ({CH2CO}-[dY]FYVWNPFVFKCGS[βAla][βAla]RK(5FAM)-NH2; thioether N-12; C-terminus assumed)", "values": [{"measurement": "Conformational preference of binding, IF vs OF", "value": "preference for the OF conformer"}]}, {"molecule": "CC[C@H](C)[C@@H]1NC(=O)[C@H](Cc2c[nH]c3ccccc23)NC(=O)[C@H](CC(N)=O)NC(=O)[C@H](C)NC(=O)[C@H](CO)NC(=O)[C@@H]2CCCN2C(=O)[C@H](CC(=O)O)NC(=O)[C@@H](Cc2ccc(O)cc2)NC(=O)CSC[C@@H](C(=O)NCC(=O)N[C@@H](CO)C(=O)NCCC(=O)NCCC(=O)N[C@@H](CCCNC(=N)N)C(=O)N[C@@H](CCCCNC(=O)c2ccc3c(c2)C(=O)OC32c3ccc(O)cc3Oc3cc(O)ccc32)C(N)=O)NC(=O)[C@H]([C@@H](C)O)NC(=O)[C@H](CC(C)C)NC(=O)[C@H](CC(C)C)NC(=O)[C@H](C(C)C)NC(=O)[C@H](CC(C)C)NC1=O", "note": "[CP13] ({CH2CO}-[dY]DPSANWILVLLTCGS[βAla][βAla]RK(5FAM)-NH2; thioether N-14; C-terminus assumed)", "values": [{"measurement": "Conformational preference of binding, IF vs OF", "value": "preference for the OF conformer"}]}]}
